Test results as given in patent US10105401B2, “Composition comprising bioactive amino acids and/or peptides and marine oil in a stable oil-in-water emulsion, and the use of said composition as a functional or therapeutic composition” (SMARTFISH AS, priority 2009, dated 2018).

Assays:
[1] = when supplemented as part of Smartfish; skeletal muscle, heart, brain
Description: The tissues were finally analyzed for the content of carnosine, both labeled and non-labeled.
This amount equals 200 mg/kg per day. After one week, the following organs were dissected out; gastrocnemius, heart and brain and immediately frozen in liquid nitrogen, and stored at −80° C.
Carnosine (Sigma-Aldrich) and 15N13C2-labeled carnosine (Sigma-Aldrich) concentrations in tissue were determined by HPLC-MS/MS operated in MRM mode.
Mouse tissues were homogenized in Methanolic HCL using a pellet grinder with cordless motor (Kontes). The homogenate was incubated for 30 min at 50° C. This procedure homogenized the tissue, precipitated proteins and methylated the carboxcylic acid group.
After centrifugation, the supernatant were injected directly into the LC-MS/MS system. Calibrators were prepared by methylation of non labeled carnosine in methanolic HCl. The HPLC column used was a Zorbax XDB 150×4.6 mm ID with 5 μm particles. A gradient elution starting with 10% MeOH in water and 4 g/l ammonium acetate 40% MeOH for 3 minutes changing linearly to 100% methanol over 3.5 minutes was used to separate carnosine from other constituents.

[2] = cited from earlier work

NCCC(=O)O [β-alanine]
bioavailability and tissue uptake of β-alanine [1]: bioavailable and taken up by all the three target tissues
reduction of muscle carnosine levels per week in washout ([2]; human volunteers, nine week washout after six weeks of β-alanine): 2.5-3.5 % reduction/week
average increase in muscle carnosine ([2]; humans, six week period, 4.8 g β-alanine per day): 27%
